Assay [1] deals with A-375. As to the kind of experiment: Cytotoxicity against human A375 cells assessed as reduction in cell viability incubated for 48 hrs by MTT assay. The conditions noted are these: A-375, 48 h. The class given is functional, cell-based.
The test system of assay [2] is LNCaP. As to the kind of experiment: Inhibition of epithelial-mesenchymal transition in human LNCAP cells assessed as increase in E-cadherin mRNA expression by qRT-PCR analysis. The format is functional, cell-based. A general note: Quantitative PCR measures a nucleic acid by following its amplification.
Assay [3] relates to A-375. Nature of the assay: Induction of cell death in human A375 cells assessed as chromatin fragmentation by DAPI staining based inverted fluorescence microscopy. The format is functional.
A further assay relates to NHDF. As to the kind of experiment: Cytotoxicity against human HDF cells assessed as reduction in cell viability incubated for 48 hrs by MTT assay. The format is cell-based. (Formazan colour is commonly taken as a measure of viable cells.)
Assay [4] deals with LNCaP. Nature of the assay: Induction of apoptosis in human LNCAP cells assessed as downregulation of Bcl2 mRNA expression by qRT-PCR analysis. The class given is functional, cell-based.
Assay [5] deals with PC-3. As to the kind of experiment: Induction of cell death in human PC3 cells assessed as chromatin fragmentation by DAPI staining based inverted fluorescence microscopy. The class given is functional.
Assay [6] deals with LNCaP. Nature of the assay: Inhibition of epithelial-mesenchymal transition in human LNCAP cells assessed as decrease in vimentin mRNA expression level by qRT-PCR analysis. The class given is functional, cell-based.
Assay [7] concerns LNCaP. Nature of the assay: Induction of apoptosis in human LNCAP cells assessed as upregulation of Bax mRNA expression by qRT-PCR analysis. The format is functional, cell-based.
Assay [8] relates to LNCaP. Nature of the assay: Cytotoxicity against human LNCAP cells assessed as reduction in cell viability incubated for 48 hrs by MTT assay. The class given is functional, cell-based.
Assay [9] has as its system A-375. As to the kind of experiment: Induction of cell death in human A375 cells assessed as morphological changes by DAPI staining based inverted fluorescence microscopy. The format is functional.
Assay [10] relates to LNCaP. As to the kind of experiment: Inhibition of cell migration at human LNCAP cells incubated for 24 hrs by phase contrast microscopy based wound healing assay. The class given is functional.
For assay [11], the system named is PC-3. Nature of the assay: Induction of cell death in human PC3 cells assessed as morphological changes by DAPI staining based inverted fluorescence microscopy. The format is functional.
In assay [12] the test system is LNCaP. Nature of the assay: Induction of cell death in human LNCAP cells assessed as morphological changes by DAPI staining based inverted fluorescence microscopy. The class given is functional.
Assay [13] deals with LNCaP. As to the kind of experiment: Induction of cell death in human LNCAP cells assessed as chromatin fragmentation by DAPI staining based inverted fluorescence microscopy. The format is functional.
Assay [14] concerns PC-3. Nature of the assay: Cytotoxicity against human PC3 cells assessed as reduction in cell viability incubated for 48 hrs by MTT assay. The class given is functional, cell-based. The conditions noted are these: PC-3, 48 h.

In ChEMBL document CHEMBL4627341, “Synthesis and evaluation of anti-tumor activity of novel triazolo[1,5-a] pyrimidine on cancer cells by induction of cellular apoptosis and inhibition of epithelial-to-mesenchymal transition process” (Bioorg Med Chem Lett, 2020) one finds IC50, inhibition and Activity data, which are given here for nine compounds.

The source made the active and inactive calls. The rule behind the calls is not given here.

As a reminder, the IC50 is the concentration at which inhibition is half-maximal. Turning to `CNC1=C([N+](=O)[O-])C(c2ccc([N+](=O)[O-])cc2)Nc2ncnn21` (configuration not stated), the IC50 with A-375 [1] is 31.7 µM; in the assay with NHDF, greater than 100 µM; in the assay with LNCaP [8], 28.6 µM; in the assay on PC-3 [14] it was 65 µM. Besides, the inhibition result in the assay on LNCaP [2], in the assay with LNCaP [6] and with LNCaP [10] was “Active” throughout. In addition, the outcome in the assay on A-375 [3], with LNCaP [4], in the assay with PC-3 [5], in the assay on LNCaP [7], with A-375 [9] and in the assay with PC-3 [11] was Active. In addition, the outcome in the assay on LNCaP [12] and in the assay with LNCaP [13] was Active.
On to `CNC1=C([N+](=O)[O-])C(c2ccc(Br)cc2)Nc2ncnn21` (configuration not stated), for which the IC50 with A-375 [1], in the assay with NHDF, with LNCaP [8] and in the assay on PC-3 [14] was greater than 100 µM throughout.
As to `CNC1=C([N+](=O)[O-])C(c2ccccc2)Nc2ncnn21` (configuration not stated), the IC50 in the assay with A-375 [1] was greater than 100 µM; in the assay on NHDF, greater than 100 µM; with LNCaP [8], greater than 100 µM; in the assay with PC-3 [14] it was 45 µM.
Take `CNC1=C([N+](=O)[O-])C(c2ccccc2Cl)Nc2ncnn21` (configuration not stated): the half-maximal inhibitory concentration (IC50) was greater than 100 µM in the assay with A-375 [1], greater than 100 µM in the assay with NHDF, greater than 100 µM in the assay on LNCaP [8] and 63.3 µM with PC-3 [14].
`CNC1=C([N+](=O)[O-])C(c2cccc(F)c2)Nc2ncnn21` (configuration not stated): the 50% inhibitory concentration (IC50) with A-375 [1] was 61.3 µM; in the assay on NHDF it was greater than 100 µM; in the assay with LNCaP [8], greater than 100 µM; with PC-3 [14], 55.6 µM.
As for `CNc1c([N+](=O)[O-])c(-c2ccncc2)nc2ncnn12`, the 50% inhibitory concentration (IC50) is greater than 100 µM with A-375 [1], greater than 100 µM in the assay on NHDF, 31.7 µM with LNCaP [8] and greater than 100 µM with PC-3 [14].
For the compound `CNC1=C([N+](=O)[O-])C(c2ccc(C(F)(F)F)cc2)Nc2ncnn21` (configuration not stated), the IC50 was 63.4 µM with A-375 [1], greater than 100 µM in the assay with NHDF, greater than 100 µM in the assay on LNCaP [8] and greater than 100 µM in the assay on PC-3 [14].
Consider `COc1cc([C@@H]2c3cc4c(cc3[C@@H](O[C@@H]3O[C@@H]5CO[C@@H](C)O[C@H]5[C@H](O)[C@H]3O)[C@H]3COC(=O)[C@H]23)OCO4)cc(OC)c1O` [ETOPOSIDE], for which the IC50 in the assay with A-375 [1] was 24.5 µM; with NHDF it was greater than 100 µM; in the assay with LNCaP [8] it was 31.2 µM; in the assay on PC-3 [14], 30 µM.
The matching figures for `CNC1=C([N+](=O)[O-])C(c2ccc(Cl)cc2)Nc2ncnn21` (configuration not stated): greater than 100 µM, greater than 100 µM, greater than 100 µM and greater than 100 µM.
